What all share (test): relative viability (nuclei count vs DMSO), 5 days (fraction); higher = more cells survive
Compound in the test “Mirin + Linsitinib”: N=C1NC(=O)/C(=C/c2ccc(O)cc2)S1 [Mirin] + C[C@]1(O)C[C@@H](c2nc(-c3ccc4ccc(-c5ccccc5)nc4c3)c3c(N)nccn32)C1 [Linsitinib] (partner 1 µM)
The method, boiled down: (§1)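 A single step with final 0.05% Triton X-100, 1% formaldehyde and 1 ug/ml Hoechst fixed the cells and stained nuclei 5 days after treatment. Lung cancer cell lines in 1536-well plates had been treated by pin tool the day after seeding with one drug alone or a fixed anchor-drug dose plus five library-drug doses (not always all listed) in √10 steps, and nuclei were counted on 4× images. Relative viability is the ratio of nuclei in treated wells to nuclei in vehicle wells, taken as the median of duplicate plates.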

Compound in the test “Mirin + Crizotinib”: N=C1NC(=O)/C(=C/c2ccc(O)cc2)S1 [Mirin] + C[C@@H](Oc1cc(-c2cnn(C3CCNCC3)c2)cnc1N)c1c(Cl)ccc(F)c1Cl [Crizotinib] (partner 1 µM)
The gist of the method:
as §1

Compound in test [1]: CCC1=CN=CN=C1N2CCN(CC2)CC3=NC4=C(N3)C=C(C=C4)C(F)(F)F + Nc1ncn([C@H]2C[C@H](O)[C@@H](CO)O2)c(=O)n1 [Decitabine] (partner 2 µM)
The method, boiled down: as §1

Compound in test [2]: CCn1c(-c2nonc2N)nc2cnc(Oc3cccc(NC(=O)c4ccc(OCCN5CCOCC5)cc4)c3)cc21 + O=C(c1cc(Cc2n[nH]c(=O)c3ccccc23)ccc1F)N1CCN(C(=O)C2CC2)CC1 [Olaparib] (partner 8 µM)
The gist of the method:
as §1

Turning to NCI-H2023, the relative viability came to 0.709 with Mirin + Linsitinib (first compound 0.25 µM); 0.674 with Mirin + Linsitinib (first compound 0.7906 µM); 0.653 in the test with Mirin + Linsitinib (first compound 2.5 µM); 0.684 with Mirin + Linsitinib (first compound 7.906 µM); 0.522 in the test with Mirin + Linsitinib (first compound 25 µM); 0.658 in the test with Mirin + Crizotinib (first compound 0.25 µM). Besides, the relative viability with Mirin + Crizotinib (first compound 0.7906 µM) was 0.665; with Mirin + Crizotinib (first compound 2.5 µM), 0.585; with Mirin + Crizotinib (first compound 7.906 µM), 0.692; with Mirin + Crizotinib (first compound 25 µM) it was 0.567; in test [1] (first compound 0.04 µM), 0.21; in test [1] (first compound 0.1265 µM), 0.218. Further, the relative viability is 0.224 in test [1] (first compound 0.4 µM); 0.215 in test [1] (first compound 1.265 µM); 0.252 in test [1] (first compound 4 µM); 0.472 in test [2] (first compound 0.04 µM); 0.438 in test [2] (first compound 0.1265 µM); 0.408 in test [2] (first compound 0.4 µM). For the same cell line, the relative viability in test [2] (first compound 1.265 µM) was found to be 0.264; in test [2] (first compound 4 µM), 0.245.
As for NCI-H2085, the relative viability in the test with Mirin + Linsitinib (first compound 0.25 µM) came out at 0.943; with Mirin + Linsitinib (first compound 0.7906 µM), 1.01; with Mirin + Linsitinib (first compound 2.5 µM), 0.898; with Mirin + Linsitinib (first compound 7.906 µM), 0.819; in the test with Mirin + Linsitinib (first compound 25 µM), 0.882; with Mirin + Crizotinib (first compound 0.25 µM), 0.798. For the same cell line, the relative viability in the test with Mirin + Crizotinib (first compound 0.7906 µM) is 0.853; with Mirin + Crizotinib (first compound 2.5 µM), 0.878; with Mirin + Crizotinib (first compound 7.906 µM), 0.704; with Mirin + Crizotinib (first compound 25 µM), 0.923; in test [1] (first compound 0.04 µM), 0.487; in test [1] (first compound 0.1265 µM), 0.526. Further, the relative viability in test [1] (first compound 0.4 µM) was determined as 0.557; in test [1] (first compound 1.265 µM), 0.476; in test [1] (first compound 4 µM) it was 0.573; in test [2] (first compound 0.04 µM) it was 0.832; in test [2] (first compound 0.1265 µM), 0.693; in test [2] (first compound 0.4 µM) it was 0.632. The figures for the relative viability in test [2] (first compound 1.265 µM) and in test [2] (first compound 4 µM) were 0.573 and 0.559, respectively.
Turning to NCI-H2087, the relative viability with Mirin + Linsitinib (first compound 0.25 µM) came to 0.992; with Mirin + Linsitinib (first compound 0.7906 µM), 1.11; with Mirin + Linsitinib (first compound 2.5 µM), 0.915; with Mirin + Linsitinib (first compound 7.906 µM), 1.23; in the test with Mirin + Linsitinib (first compound 25 µM), 0.841; in the test with Mirin + Crizotinib (first compound 0.25 µM), 0.898. Moreover, the relative viability in the test with Mirin + Crizotinib (first compound 0.7906 µM) was found to be 1.08; with Mirin + Crizotinib (first compound 2.5 µM), 0.849; in the test with Mirin + Crizotinib (first compound 7.906 µM), 0.771; with Mirin + Crizotinib (first compound 25 µM), 1.16; in test [1] (first compound 0.04 µM) it was 0.278; in test [1] (first compound 0.1265 µM), 0.234. The relative viability in test [1] (first compound 0.4 µM) amounted to 0.331; in test [1] (first compound 1.265 µM), 0.271; in test [1] (first compound 4 µM), 0.209; in test [2] (first compound 0.04 µM) it was 0.802; in test [2] (first compound 0.1265 µM), 0.539; in test [2] (first compound 0.4 µM) it was 0.559. The relative viability in test [2] (first compound 1.265 µM) turned out to be 0.483; in test [2] (first compound 4 µM) it was 0.586.
On to NCI-H2126, for which the relative viability with Mirin + Linsitinib (first compound 0.25 µM) was 0.713; in the test with Mirin + Linsitinib (first compound 0.7906 µM), 0.707; with Mirin + Linsitinib (first compound 2.5 µM) it was 0.756; in the test with Mirin + Linsitinib (first compound 7.906 µM), 0.639; with Mirin + Linsitinib (first compound 25 µM) it was 0.698; with Mirin + Crizotinib (first compound 0.25 µM), 1.02. Also, the relative viability with Mirin + Crizotinib (first compound 0.7906 µM) was 1.07; with Mirin + Crizotinib (first compound 2.5 µM), 0.981; with Mirin + Crizotinib (first compound 7.906 µM) it was 0.994; with Mirin + Crizotinib (first compound 25 µM) it was 1.21; in test [1] (first compound 0.04 µM), 0.598; in test [1] (first compound 0.1265 µM) it was 0.58. Further, the relative viability in test [1] (first compound 0.4 µM) stood at 0.595; in test [1] (first compound 1.265 µM) it was 0.541; in test [1] (first compound 4 µM), 0.58; in test [2] (first compound 0.04 µM), 1.09; in test [2] (first compound 0.1265 µM), 0.966; in test [2] (first compound 0.4 µM), 0.907. The values for the relative viability in test [2] (first compound 1.265 µM) and in test [2] (first compound 4 µM) were 0.889 and 0.854, respectively.
Consider NCI-H2347, for which the relative viability in the test with Mirin + Linsitinib (first compound 0.25 µM) was 0.923; in the test with Mirin + Linsitinib (first compound 0.7906 µM), 1.09; in the test with Mirin + Linsitinib (first compound 2.5 µM) it was 0.98; with Mirin + Linsitinib (first compound 7.906 µM), 0.989; with Mirin + Linsitinib (first compound 25 µM), 0.985; with Mirin + Crizotinib (first compound 0.25 µM) it was 0.759. Moreover, the relative viability in the test with Mirin + Crizotinib (first compound 0.7906 µM) was 0.68; with Mirin + Crizotinib (first compound 2.5 µM), 0.693; with Mirin + Crizotinib (first compound 7.906 µM), 0.502; with Mirin + Crizotinib (first compound 25 µM) it was 0.631; in test [1] (first compound 0.04 µM), 0.666; in test [1] (first compound 0.1265 µM) it was 0.551. Further, the relative viability in test [1] (first compound 0.4 µM) was found to be 0.63; in test [1] (first compound 1.265 µM), 0.613; in test [1] (first compound 4 µM), 0.529; in test [2] (first compound 0.04 µM), 0.549; in test [2] (first compound 0.1265 µM) it was 0.587; in test [2] (first compound 0.4 µM) it was 0.824. For the same cell line, the values for the relative viability in test [2] (first compound 1.265 µM) and in test [2] (first compound 4 µM) were 0.383 and 0.448, respectively.
As for NCI-H2405, the relative viability with Mirin + Linsitinib (first compound 0.25 µM) worked out at 0.891; with Mirin + Linsitinib (first compound 0.7906 µM), 1; with Mirin + Linsitinib (first compound 2.5 µM), 0.963; with Mirin + Linsitinib (first compound 7.906 µM) it was 0.895; with Mirin + Linsitinib (first compound 25 µM) it was 0.789; with Mirin + Crizotinib (first compound 0.25 µM), 0.835. For the same cell line, the relative viability was 0.584 with Mirin + Crizotinib (first compound 0.7906 µM); 0.878 in the test with Mirin + Crizotinib (first compound 2.5 µM); 0.816 with Mirin + Crizotinib (first compound 7.906 µM); 0.793 in the test with Mirin + Crizotinib (first compound 25 µM); 0.748 in test [1] (first compound 0.04 µM); 0.715 in test [1] (first compound 0.1265 µM). For the same cell line, the relative viability in test [1] (first compound 0.4 µM) came out at 0.711; in test [1] (first compound 4 µM), 0.795; in test [2] (first compound 0.04 µM), 0.883; in test [2] (first compound 0.1265 µM), 0.57; in test [2] (first compound 0.4 µM), 0.341; in test [2] (first compound 1.265 µM), 0.258. Also, the relative viability in test [2] (first compound 4 µM) was 0.287.

For the origin of these results see the supplement of paper PMC10307832.
